# In the supplement of paper PMC10307832:
# How the values were obtained:
# Experiment in all cases: relative viability (nuclei count vs DMSO), 5 days (fraction); higher = more cells survive
# 201T = tested on: 201T
# Summary of the method: (§1)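 For relative viability, nuclei counts in treated wells were divided by those in vehicle wells. Lung cancer cell lines had been pin-tool dosed in 1536-well plates the day after seeding and cultured for 5 days, then fixed and stained in one step (final 0.05% Triton X-100, 1% formaldehyde, 1 ug/ml Hoechst) and imaged at 4×. Doses were one drug alone or a fixed anchor-drug dose plus five library-drug doses (not always all listed) in √10 steps, and values are duplicate-plate medians.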
# PC-3 [JPC-3] = tested on: PC-3 [JPC-3]
# Summary of the method: as §1
# CAL-12T = tested on: CAL-12T
# Summary of the method: as §1
# NCI-H661 = tested on: NCI-H661
# Summary of the method: as §1
# LCLC-97TM1 = tested on: LCLC-97TM1
# Summary of the method: as §1
# H3255 = tested on: H3255
# Summary of the method: as §1
# ABC-1 = tested on: ABC-1
# Summary of the method: as §1
# A-427 = tested on: A-427
# Summary of the method: as §1
# LC-2-ad = tested on: LC-2-ad
# Summary of the method: as §1
# NCI-H1915 = tested on: NCI-H1915
# Summary of the method: as §1
# BEN = tested on: BEN
# Summary of the method: as §1
# NCI-H596 = tested on: NCI-H596
# Summary of the method: as §1
# NCI-H727 = tested on: NCI-H727
# Summary of the method: as §1
# NCI-H1944 = tested on: NCI-H1944
# Summary of the method: as §1
# NCI-H1650 = tested on: NCI-H1650
# Summary of the method: as §1
# NCI-H520 = tested on: NCI-H520
# Summary of the method: as §1
# NCI-H2087 = tested on: NCI-H2087
# Summary of the method: as §1
# NCI-H650 = tested on: NCI-H650
# Summary of the method: as §1
# NCI-H460 = tested on: NCI-H460
# Summary of the method: as §1
# NCI-H2023 = tested on: NCI-H2023
# Summary of the method: as §1
# NCI-H1651 = tested on: NCI-H1651
# Summary of the method: as §1
structure (smiles),measurement,setting,value
O=c1cc(N2CCOCC2)oc2c(-c3cccc4c3sc3ccccc34)cccc12 + CS(=O)(=O)CCNCc1ccc(-c2ccc3ncnc(Nc4ccc(OCc5cccc(F)c5)c(Cl)c4)c3c2)o1 [Lapatinib] (partner 2 µM),relative viability,201T; first compound 0.01 µM,1.11
same,relative viability,201T; first compound 0.03162 µM,1.03
same,relative viability,201T; first compound 0.1 µM,1.06
same,relative viability,201T; first compound 0.3162 µM,0.997
same,relative viability,201T; first compound 1 µM,0.968
same,relative viability,PC-3 [JPC-3]; first compound 0.01 µM,0.492
same,relative viability,PC-3 [JPC-3]; first compound 0.03162 µM,0.435
same,relative viability,PC-3 [JPC-3]; first compound 0.1 µM,0.462
same,relative viability,PC-3 [JPC-3]; first compound 0.3162 µM,0.421
same,relative viability,PC-3 [JPC-3]; first compound 1 µM,0.423
same,relative viability,CAL-12T; first compound 0.01 µM,0.707
same,relative viability,CAL-12T; first compound 0.1 µM,0.662
same,relative viability,CAL-12T; first compound 0.3162 µM,0.671
same,relative viability,CAL-12T; first compound 1 µM,0.691
same,relative viability,NCI-H661; first compound 0.01 µM,0.487
same,relative viability,NCI-H661; first compound 0.03162 µM,0.531
same,relative viability,NCI-H661; first compound 0.1 µM,0.603
same,relative viability,NCI-H661; first compound 0.3162 µM,0.473
same,relative viability,NCI-H661; first compound 1 µM,0.522
same,relative viability,LCLC-97TM1; first compound 0.01 µM,1.09
same,relative viability,LCLC-97TM1; first compound 0.03162 µM,1.57
same,relative viability,LCLC-97TM1; first compound 0.3162 µM,1.13
same,relative viability,LCLC-97TM1; first compound 1 µM,0.727
same,relative viability,H3255; first compound 0.01 µM,0.222
same,relative viability,H3255; first compound 0.03162 µM,0.286
same,relative viability,H3255; first compound 0.1 µM,0.258
same,relative viability,H3255; first compound 0.3162 µM,0.225
same,relative viability,H3255; first compound 1 µM,0.248
same,relative viability,ABC-1; first compound 0.01 µM,1.07
same,relative viability,ABC-1; first compound 0.03162 µM,1.07
same,relative viability,ABC-1; first compound 0.1 µM,1.6
same,relative viability,ABC-1; first compound 0.3162 µM,1.04
same,relative viability,ABC-1; first compound 1 µM,1.2
same,relative viability,A-427; first compound 0.01 µM,1.12
same,relative viability,A-427; first compound 0.03162 µM,1.01
same,relative viability,A-427; first compound 0.1 µM,0.982
same,relative viability,A-427; first compound 0.3162 µM,1.01
same,relative viability,A-427; first compound 1 µM,1.05
same,relative viability,LC-2-ad; first compound 0.01 µM,1.06
same,relative viability,LC-2-ad; first compound 0.1 µM,1.03
same,relative viability,LC-2-ad; first compound 0.3162 µM,0.898
same,relative viability,LC-2-ad; first compound 1 µM,1.02
same,relative viability,NCI-H1915; first compound 0.01 µM,1.05
same,relative viability,NCI-H1915; first compound 0.03162 µM,1.05
same,relative viability,NCI-H1915; first compound 0.1 µM,0.957
same,relative viability,NCI-H1915; first compound 0.3162 µM,0.977
same,relative viability,NCI-H1915; first compound 1 µM,1.05
same,relative viability,BEN; first compound 0.01 µM,0.662
same,relative viability,BEN; first compound 0.03162 µM,0.843
same,relative viability,BEN; first compound 0.1 µM,0.69
same,relative viability,BEN; first compound 0.3162 µM,0.735
same,relative viability,BEN; first compound 1 µM,0.67
same,relative viability,NCI-H596; first compound 0.01 µM,1.11
same,relative viability,NCI-H596; first compound 0.03162 µM,1.16
same,relative viability,NCI-H596; first compound 0.1 µM,1.06
same,relative viability,NCI-H596; first compound 0.3162 µM,1.16
same,relative viability,NCI-H596; first compound 1 µM,1.16
same,relative viability,NCI-H727; first compound 0.01 µM,0.835
same,relative viability,NCI-H727; first compound 0.03162 µM,0.973
same,relative viability,NCI-H727; first compound 0.1 µM,0.925
same,relative viability,NCI-H727; first compound 0.3162 µM,0.717
same,relative viability,NCI-H727; first compound 1 µM,0.954
same,relative viability,NCI-H1944; first compound 0.01 µM,0.842
same,relative viability,NCI-H1944; first compound 0.03162 µM,0.817
same,relative viability,NCI-H1944; first compound 0.1 µM,1.04
same,relative viability,NCI-H1944; first compound 0.3162 µM,1.01
same,relative viability,NCI-H1944; first compound 1 µM,0.775
same,relative viability,NCI-H1650; first compound 0.03162 µM,0.831
same,relative viability,NCI-H1650; first compound 0.1 µM,0.775
same,relative viability,NCI-H1650; first compound 0.3162 µM,0.756
same,relative viability,NCI-H1650; first compound 1 µM,0.75
same,relative viability,NCI-H520; first compound 0.01 µM,0.781
same,relative viability,NCI-H520; first compound 0.03162 µM,0.825
same,relative viability,NCI-H520; first compound 0.1 µM,0.767
same,relative viability,NCI-H520; first compound 0.3162 µM,0.816
same,relative viability,NCI-H520; first compound 1 µM,0.906
same,relative viability,NCI-H2087; first compound 0.01 µM,0.847
same,relative viability,NCI-H2087; first compound 0.03162 µM,1.11
same,relative viability,NCI-H2087; first compound 0.1 µM,1.2
same,relative viability,NCI-H2087; first compound 0.3162 µM,0.938
same,relative viability,NCI-H2087; first compound 1 µM,1.17
same,relative viability,NCI-H650; first compound 0.01 µM,0.769
same,relative viability,NCI-H650; first compound 0.03162 µM,0.973
same,relative viability,NCI-H650; first compound 0.3162 µM,1.17
same,relative viability,NCI-H650; first compound 1 µM,0.77
same,relative viability,NCI-H460; first compound 0.01 µM,0.926
same,relative viability,NCI-H460; first compound 0.03162 µM,1.07
same,relative viability,NCI-H460; first compound 0.1 µM,1.09
same,relative viability,NCI-H460; first compound 0.3162 µM,0.807
same,relative viability,NCI-H460; first compound 1 µM,1.11
same,relative viability,NCI-H2023; first compound 0.01 µM,0.88
same,relative viability,NCI-H2023; first compound 0.03162 µM,0.975
same,relative viability,NCI-H2023; first compound 0.1 µM,0.882
same,relative viability,NCI-H2023; first compound 0.3162 µM,0.826
same,relative viability,NCI-H2023; first compound 1 µM,0.887
same,relative viability,NCI-H1651; first compound 0.01 µM,0.746
same,relative viability,NCI-H1651; first compound 0.03162 µM,0.909
same,relative viability,NCI-H1651; first compound 0.1 µM,0.875
same,relative viability,NCI-H1651; first compound 0.3162 µM,0.741
same,relative viability,NCI-H1651; first compound 1 µM,0.878
